Results from doi:10.1101/625897v2 (biorxiv, 2019).

What was measured:
Test in all cases: inside-out patch clamp, Cl- current stimulation
ANO1 (TMEM16A; mTMEM16A) [1] = target: T1, ANO1 (TMEM16A; mTMEM16A) (Mus musculus, UniProt Q8BHY3); type: cell-based
T1 sequence (Q8BHY3 1-960): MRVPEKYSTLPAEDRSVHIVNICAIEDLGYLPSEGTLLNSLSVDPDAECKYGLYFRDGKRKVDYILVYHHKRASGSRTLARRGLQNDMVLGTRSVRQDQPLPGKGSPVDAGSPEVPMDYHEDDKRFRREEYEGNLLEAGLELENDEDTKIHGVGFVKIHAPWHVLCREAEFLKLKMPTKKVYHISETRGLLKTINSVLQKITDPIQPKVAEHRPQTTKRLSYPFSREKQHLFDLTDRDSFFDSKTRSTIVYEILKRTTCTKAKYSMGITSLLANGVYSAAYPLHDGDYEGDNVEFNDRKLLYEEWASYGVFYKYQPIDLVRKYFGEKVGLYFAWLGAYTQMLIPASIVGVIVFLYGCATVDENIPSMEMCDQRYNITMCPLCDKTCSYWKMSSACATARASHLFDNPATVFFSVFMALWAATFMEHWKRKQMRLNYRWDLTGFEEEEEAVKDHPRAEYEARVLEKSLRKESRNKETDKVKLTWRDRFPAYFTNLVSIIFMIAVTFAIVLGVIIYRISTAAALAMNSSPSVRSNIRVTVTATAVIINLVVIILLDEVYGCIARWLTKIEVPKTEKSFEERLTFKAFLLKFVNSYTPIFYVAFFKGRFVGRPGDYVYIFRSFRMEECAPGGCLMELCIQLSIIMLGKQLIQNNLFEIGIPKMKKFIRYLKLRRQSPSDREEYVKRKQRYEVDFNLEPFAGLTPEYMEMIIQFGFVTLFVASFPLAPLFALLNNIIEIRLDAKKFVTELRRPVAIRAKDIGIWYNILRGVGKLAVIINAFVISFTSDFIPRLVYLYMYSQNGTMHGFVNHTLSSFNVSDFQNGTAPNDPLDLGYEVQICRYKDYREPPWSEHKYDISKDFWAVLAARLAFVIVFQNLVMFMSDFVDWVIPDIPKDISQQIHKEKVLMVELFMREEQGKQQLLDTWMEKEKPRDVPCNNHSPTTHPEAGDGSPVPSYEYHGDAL

ANO1 (TMEM16A; mTMEM16A) [2] = target: T1, ANO1 (TMEM16A; mTMEM16A); type: biochemical; settings: +100 mV, 270 nM Ca2+; wild-type reference of the mutant set
ANO1 (TMEM16A; mTMEM16A) [3] = target: T1, ANO1 (TMEM16A; mTMEM16A); type: biochemical; settings: +100 mV, 270 nM Ca2+

EC50 (ANO1 (TMEM16A; mTMEM16A) [1])	ΔIPIP2 (% current increase) at 10 μM (ANO1 (TMEM16A; mTMEM16A) [2])	% current increase at 10 μM (ANO1 (TMEM16A; mTMEM16A) [3])	Structure (SMILES)
1240 nM	89.9 ± 16.8%	–	CCCCCCCC(=O)OC[C@H](COP(=O)(O)O[C@@H]1[C@H](O)[C@H](O)[C@@H](OP(=O)(O)O)[C@H](OP(=O)(O)O)[C@H]1O)OC(=O)CCCCCCC [diC8-PI(4,5)P2]
–	–	31 ± 12%	CCCCCCCC(=O)OC[C@H](COP(=O)(O)O[C@H]1[C@H](O)[C@@H](OP(=O)(O)O)[C@H](OP(=O)(O)O)[C@@H](OP(=O)(O)O)[C@H]1O)OC(=O)CCCCCCC [diC8-PI(3,4,5)P3]
